# Assay results reported in PubChem BioAssay AID588774 (The Scripps Research Institute Molecular Screening Center, 2011).
# Activity calls are given as the source filed them.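 The calls were made as follows: active = target enzyme inhibited at least 50% at a set dose, and selective over every off-target enzyme by a set factor; inactive = weaker inhibition or too little selectivity.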
# Assays:
# [1] = competitive ABPP of pPAFAH versus proteome hydrolases – biochemical, gel-based, FP-Rh fluorescence, complex proteome, SAR compounds, selectivity assay for pPAFAH inhibitor project, SAR follow-up (AID 588774); details: at 10 µM;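 as to inhibition: 0% = DMSO-only band intensity and 100% = blank gel background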
# ABHD3 = test: as above; details: at 10 µM, stronger effect = higher value
# ABHD4 = ABHD4 (UniProt Q8VD66); test: as above; details: stronger effect = higher value
# Sequence of ABHD4 (Q8VD66 whole entry, looked up): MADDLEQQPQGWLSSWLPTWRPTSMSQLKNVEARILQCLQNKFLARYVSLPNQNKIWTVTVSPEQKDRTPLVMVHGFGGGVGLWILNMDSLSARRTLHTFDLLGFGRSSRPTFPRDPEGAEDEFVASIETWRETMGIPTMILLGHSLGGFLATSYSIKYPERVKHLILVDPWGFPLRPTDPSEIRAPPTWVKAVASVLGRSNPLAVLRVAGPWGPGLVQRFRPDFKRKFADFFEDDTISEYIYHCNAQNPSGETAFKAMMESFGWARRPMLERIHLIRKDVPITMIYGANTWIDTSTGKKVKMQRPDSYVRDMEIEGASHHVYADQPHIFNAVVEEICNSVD
# ABHD6 = test: as above; details: stronger effect = higher value
# FAAH = test: as above; details: stronger effect = higher value
# LYPLA1 = test: as above; details: stronger effect = higher value
# LYPLA2 = test: as above; details: stronger effect = higher value
# MW 30 kDa = test: as above; details: stronger effect = higher value
# [2] = biological target: Monoglyceride lipase (Mus musculus) (UniProt O35678); test: as above; details: MAGL, stronger effect = higher value
# Sequence of Monoglyceride lipase (Mus musculus) (O35678 whole entry, looked up): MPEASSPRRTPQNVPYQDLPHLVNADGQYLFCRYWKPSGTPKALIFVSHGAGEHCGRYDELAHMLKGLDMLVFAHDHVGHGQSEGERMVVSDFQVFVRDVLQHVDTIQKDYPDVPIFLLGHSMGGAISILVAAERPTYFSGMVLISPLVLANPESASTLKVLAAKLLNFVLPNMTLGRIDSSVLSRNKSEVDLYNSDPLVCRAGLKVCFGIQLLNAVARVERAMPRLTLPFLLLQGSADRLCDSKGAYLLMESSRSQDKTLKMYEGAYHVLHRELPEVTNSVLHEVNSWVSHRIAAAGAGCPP
# [3] = biological target: Platelet-activating factor acetylhydrolase (Mus musculus) (UniProt Q60963); test: as above; details: pPAFAH, stronger effect = higher value
# Sequence of Platelet-activating factor acetylhydrolase (Mus musculus) (Q60963 whole entry, looked up): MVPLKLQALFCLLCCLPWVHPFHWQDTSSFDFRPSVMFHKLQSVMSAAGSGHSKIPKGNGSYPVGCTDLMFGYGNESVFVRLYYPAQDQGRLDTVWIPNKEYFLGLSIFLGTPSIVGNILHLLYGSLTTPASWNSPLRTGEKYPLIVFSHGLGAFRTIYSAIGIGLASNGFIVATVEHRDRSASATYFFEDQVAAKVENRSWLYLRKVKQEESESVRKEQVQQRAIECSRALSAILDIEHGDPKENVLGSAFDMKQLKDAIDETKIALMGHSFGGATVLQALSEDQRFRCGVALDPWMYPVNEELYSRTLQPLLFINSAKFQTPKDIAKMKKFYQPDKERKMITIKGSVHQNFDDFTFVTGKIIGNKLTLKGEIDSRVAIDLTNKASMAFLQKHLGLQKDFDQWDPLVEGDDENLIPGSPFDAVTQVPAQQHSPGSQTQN
# pPAFAH = test: as above; details: anti-targets inhibited, at 10 µM
"anti-target count ([1]; ABHD3, anti-targets inhibited)","anti-target count ([1]; ABHD4, anti-targets inhibited)","anti-target count ([1]; ABHD6, anti-targets inhibited)","anti-target count ([1]; FAAH, anti-targets inhibited)","anti-target count ([1]; LYPLA1, anti-targets inhibited)","anti-target count ([1]; LYPLA2, anti-targets inhibited)","anti-target count ([1]; MAGL, anti-targets inhibited)",inhibition (ABHD3),inhibition (ABHD4; at 10 µM),inhibition (ABHD6; at 10 µM),inhibition (FAAH; at 10 µM),"inhibition (FAAH; inhibition, at 0.1 µM)","inhibition (FAAH; inhibition, at 1 µM)",inhibition (LYPLA1; at 10 µM),inhibition (LYPLA2; at 10 µM),inhibition ([2]; at 10 µM),inhibition ([3]; at 10 µM),"inhibition ([3]; inhibition, at 0.1 µM)","inhibition ([3]; inhibition, at 1 µM)",anti-target count (pPAFAH),SMILES,other results
2,2,2,2,2,2,2,0% (inactive),0% (inactive),46% (inactive),100%,96%,100%,0% (inactive),0% (inactive),23% (inactive),100%,82%,85%,2,O=C(Oc1noc2cc(Cl)ccc12)N1CCCCC1,"inhibition (ABHD6; inhibition, at 0.1 µM): 20%; inhibition (ABHD6; inhibition, at 1 µM): 38%; inhibition (MW 30 kDa; at 1 µM): 40%; inhibition ([2]; inhibition, at 1 µM): 13%"
0,0,0,0,0,0,0,0% (inactive),0% (inactive),0% (inactive),0% (inactive),,,0% (inactive),0% (inactive),0% (inactive),95% (inactive),2%,63%,0,Cc1cc(N2CCN(C(=O)Oc3ccc(C4CCCCC4)cc3)CC2)c2ccccc2n1,
0,0,0,0,0,0,0,0% (inactive),0% (inactive),0% (inactive),0% (inactive),,,0% (inactive),0% (inactive),0% (inactive),87% (inactive),35%,80%,0,Cc1cc(N2CCN(C(=O)Oc3ccc(-n4cccc4)cc3)CC2)c2ccccc2n1,
3,3,3,3,3,3,3,0% (inactive),48% (inactive),38% (inactive),99% (inactive),39%,79%,73% (inactive),24% (inactive),97%,99%,87%,87%,3,Cc1cc(N2CCN(C(=O)n3oc4cc(Cl)ccc4c3=O)CC2)c2ccccc2n1,"inhibition (ABHD4; inhibition, at 0.1 µM): 36%; inhibition (ABHD4; inhibition, at 1 µM): 38%; inhibition (ABHD6; inhibition, at 0.1 µM): 19%; inhibition (ABHD6; inhibition, at 1 µM): 32%; inhibition (LYPLA1; inhibition, at 1 µM): 13%; inhibition (LYPLA2; inhibition, at 0.1 µM): 3%; inhibition (LYPLA2; inhibition, at 1 µM): 6%; inhibition ([2]; inhibition, at 0.1 µM): 54%; inhibition ([2]; inhibition, at 1 µM): 73%"
3,3,3,3,3,3,3,0% (inactive),0% (inactive),66% (inactive),100%,85%,94%,0% (inactive),0% (inactive),26% (inactive),100%,96%,97%,3,O=C(Oc1noc2cc(Cl)ccc12)N1CCOCC1,"inhibition (ABHD6; inhibition, at 0.1 µM): 27%; inhibition (ABHD6; inhibition, at 1 µM): 46%; inhibition (MW 30 kDa; at 0.1 µM): 24%; inhibition (MW 30 kDa; at 1 µM): 39%"
1,1,1,1,1,1,1,0% (inactive),72% (inactive),0% (inactive),0% (inactive),,,0% (inactive),0% (inactive),0% (inactive),93% (inactive),46%,87%,1,Cc1cc(N2CCN(C(=O)Oc3ccc(C(F)(F)F)cc3)CC2)c2ccccc2n1,"inhibition (ABHD4; inhibition, at 0.1 µM): 32%; inhibition (ABHD4; inhibition, at 1 µM): 39%"
0,0,0,0,0,0,0,0% (inactive),0% (inactive),0% (inactive),0% (inactive),,,0% (inactive),0% (inactive),0% (inactive),56% (inactive),2%,37%,0,Cc1cc(N2CCN(C(=O)Oc3ccc(-c4ccc(Br)cc4)cc3)CC2)c2ccccc2n1,
0,0,0,0,0,0,0,0% (inactive),27% (inactive),0% (inactive),0% (inactive),,,0% (inactive),0% (inactive),0% (inactive),91% (inactive),28%,82%,0,Cc1cc(N2CCN(C(=O)Oc3ccc(C4CCCC4)cc3)CC2)c2ccccc2n1,
0,0,0,0,0,0,0,0% (inactive),0% (inactive),0% (inactive),0% (inactive),,,0% (inactive),0% (inactive),0% (inactive),100%,66%,95%,0,Cc1cc(N2CCN(C(=O)Oc3ccc(-c4ccccc4)cc3)CC2)c2ccccc2n1,
2,2,2,2,2,2,2,0% (inactive),0% (inactive),0% (inactive),71% (inactive),16%,36%,0% (inactive),0% (inactive),64% (inactive),100% (inactive),47%,95%,2,Cc1cc(N2CCN(C(=O)Oc3ccc([N+](=O)[O-])cc3)CC2)c2ccccc2n1,"inhibition ([2]; inhibition, at 0.1 µM): 23%; inhibition ([2]; inhibition, at 1 µM): 51%"
4,4,4,4,4,4,4,0% (inactive),0% (inactive),53%,100%,87%,100%,50% (inactive),0% (inactive),86%,100%,89%,91%,4,Cc1cc(N2CCN(C(=O)Oc3noc4cc(Cl)ccc34)CC2)c2ccccc2n1,"inhibition (ABHD6; inhibition, at 0.1 µM): 53%; inhibition (ABHD6; inhibition, at 1 µM): 53%; inhibition (LYPLA1; inhibition, at 0.1 µM): 20%; inhibition (LYPLA1; inhibition, at 1 µM): 25%; inhibition ([2]; inhibition, at 0.1 µM): 79%; inhibition ([2]; inhibition, at 1 µM): 83%"
6,6,6,6,6,6,6,0% (inactive),0% (inactive),79% (inactive),100%,83%,96%,81% (inactive),54% (inactive),68% (inactive),98%,98%,98%,6,O=C(N1CCOCC1)n1oc2cc(Cl)ccc2c1=O,"inhibition (ABHD6; inhibition, at 0.1 µM): 37%; inhibition (ABHD6; inhibition, at 1 µM): 58%; inhibition (LYPLA1; inhibition, at 0.1 µM): 17%; inhibition (LYPLA1; inhibition, at 1 µM): 33%; inhibition (LYPLA2; inhibition, at 0.1 µM): 21%; inhibition (LYPLA2; inhibition, at 1 µM): 33%; inhibition (MW 30 kDa; at 0.1 µM): 31%; inhibition (MW 30 kDa; at 1 µM): 43%; inhibition ([2]; inhibition, at 0.1 µM): 36%; inhibition ([2]; inhibition, at 1 µM): 53%"
